# Tested on: purulent wound infected with Staphylococcus aureus
# Experiment: Purulent skin-facial wound model infected with Staphylococcus aureus, topical treatment
# Assay type: in vivo, Chinchilla rabbits
# Method: The effect of topical administration of a fermented milk product prepared as described above was studied using 24 Chinchilla rabbits. Standard skin-facial wounds of about 2×2.5 cm (500 sq. mm) in size were inflicted in the back area of all the rabbits; a skin graft was dissected with subcutaneous fat and fascia up to a muscular layer, wound edges containing subcutaneous muscle were crushed with Kocher's forceps. Following hemeostasis, rabbits were infected by introducing 1 ml microbial suspension containing 1.5×10^9 Staphylococcus aureus into the wound.
# All animals were divided into three groups each containing eight rabbits. In group I (test), the animals were treated with the fermented milk. For comparison, rabbits of Group II were treated with Rivanol (Chinosolfabrik, Germany). Group III consisted of control, untreated animals. Treatment was initiated on the third day postinfection. The fermented milk preparations were applied locally using liberally wetted, loosely placed napkins onto the wound followed by application of an aseptic dressing. Animals of the control group were maintained under identical conditions, and were subjected to daily wound sanitation and application of aseptic dressings.
# The clinical course of wound healing was controlled based on a number of criteria—nature and amount of the discharge, terms for arresting a perifocal inflammatory reaction, necrolysis terms, emergence of granulations, epithelization, terms of a wound healing. At the same time, the surface area of the wound was measured; cytological, morphological studies of the wound edge and bottom were carried out; and bacteriological studies of wound discharge (prior and during the treatment) were performed. To determine the presence of microbes in sections, the preparations were Gram-Weigart stained. Bacteriological studies were carried out with regard to a rate and duration of Staphylococcus dissemination from a destruction focus. The following quantitative characteristics of dissemination were used: up to 25 colonies on a Petri dish=limited growth; up to 70 colonies=poor growth; up to 200 colonies=abundant growth; and more than 200 colonies=complete growth.
# Material from a purulent wound was removed with a calcined and quenched standard loop, 3 mm in diameter, emulsified in 1 ml saline and then plated by 0.05 ml onto Petri dishes of plain agar. The plated material was placed in an incubator at 37° C. for 18-20 hours followed by Staphylococcus aureus colony count.
# [1] = local application, treatment from third day postinfection
smiles,measurement,setting,value
CCOc1ccc2nc3cc(N)ccc3c(N)c2c1 [Rivanol],Edge epithelization advent,[1],15.1 days
same,Full wound filling with granules,[1],18.9 days
same,Full wound healing,[1],24.7 days
same,First granulation advent,"local application, treatment from third day postinfection, 8 rabbits per group",7.0 days
same,"Full wound healing, days (first column of that name)","local application, treatment from third day postinfection, column after first granulation advent",13.5 days
same,Nature of the cicatrix,study of cicatrices after healing,a more coarse cicatricial tissue prevailed
